Data taken from ChEMBL document CHEMBL4699580, “Drophiobiolins A and B, Bioactive Ophiobolan Sestertepenoids Produced by Dreschslera gigantea” (J Nat Prod, 2020).
pIC50: −log10 of the molar value. Activity calls are given as the source filed them. The rule behind the calls is not given here.

Tests used:
Solanum lycopersicum [1] = experiment: Phytotoxicity against Lycopersicon esculentum leaf assessed as diameter of necrosis at 10^-4 M by leaf-puncture assay; format: functional; settings: dose 0.0001 M; 100 µM
Digitaria sanguinalis [2] = experiment: Phytotoxicity against Digitaria sanguinalis leaves assessed as diameter of necrosis at 10^-3 M by leaf-puncture assay; format: functional; settings: dose 0.001 M; 1000 µM
RD = experiment: Cytotoxicity against human RD cells assessed as reduction in cell viability relative to control; format: functional
Solanum lycopersicum [3] = experiment: Phytotoxicity against Lycopersicon esculentum leaf assessed as diameter of necrosis at 10^-3 M by leaf-puncture assay; format: functional; settings: dose 0.001 M; 1000 µM
Chenopodium album [4] = experiment: Phytotoxicity against Chenopodium album leaf assessed as diameter of necrosis at 10^-4 M by leaf-puncture assay; format: functional; settings: dose 0.0001 M; 100 µM
Chenopodium album [5] = experiment: Phytotoxicity against Chenopodium album leaf assessed as diameter of necrosis at 10^-3 M by leaf-puncture assay; format: functional; settings: dose 0.001 M; 1000 µM
B16-F10 = experiment: Antiproliferative activity against mouse B16-F10 cells assessed as reduction in cell viability after 72 hrs by MTT assay; format: functional, cell-based; settings: B16-F10, 72 h
Digitaria sanguinalis [6] = experiment: Phytotoxicity against Digitaria sanguinalis leaf assessed as diameter of necrosis at 10^-4 M by leaf-puncture assay; format: functional; settings: dose 0.0001 M; 100 µM
HeLa [7] = experiment: Cytotoxicity against human HeLa cells assessed as reduction in cell viability at 0.5 to 10 uM after 24 hrs by MTT assay relative to control; format: functional; settings: dose microM 0.5-10
A-431 = experiment: Cytotoxicity against human A-431 cells assessed as reduction in cell viability at 0.5 to 10 uM after 24 hrs by MTT assay relative to control; format: functional; settings: dose microM 0.5-10
HaCaT = experiment: Cytotoxicity against human HaCaT cells assessed as reduction in cell viability at 0.5 to 10 uM after 24 hrs by MTT assay relative to control; format: functional; settings: dose microM 0.5-10
HeLa [8] = experiment: Cytotoxicity against human HeLa cells assessed as reduction in cell viability after 24 hrs by MTT assay; format: functional, cell-based
NCI-H1299 = experiment: Cytotoxicity against human NCI-H1299 cells assessed as reduction in cell viability at 0.5 to 10 uM after 24 hrs by MTT assay; format: functional, cell-based; settings: dose microM 0.5-10, time 24.0 hrs

Structure (SMILES)	Activity (Solanum lycopersicum [1]) [mm]	Activity (Digitaria sanguinalis [2]) [mm]	Activity (RD) [%]	Activity (Solanum lycopersicum [3]) [mm]	Activity (Chenopodium album [4]) [mm]	Activity (Chenopodium album [5]) [mm]	pIC50 (B16-F10)	Activity (Digitaria sanguinalis [6]) [mm]	Activity (HeLa [7])	Activity (A-431)	Activity (HaCaT)	pIC50 (HeLa [8])	Activity (NCI-H1299)
CC(C)=C[C@H]1C[C@H](C)[C@]2(CC[C@]3(C)C[C@H]4[C@H](C(=O)C[C@@]4(C)O)/C(C=O)=C\C[C@H]32)O1 [OPHIOBOLIN A]	3	3	70	3	2	3	6.54	3	–	–	–	–	–
CC(C)=C[C@H]1C[C@H](C)[C@]2(CC[C@]3(C)C[C@@H]4C(C)=CC(=O)/C4=C(\CO)C(=O)C[C@H]32)O1	2	3	–	2	1	3	–	2	<=50%	<=72%	<=63%	5.00	inactive
CC1=CC(=O)[C@H]2/C(C=O)=C\C[C@@H]3[C@](C)(CC[C@]3(O)[C@@H](C)CCCC(C)(C)O)C[C@H]12	1	3	–	2	0	3	–	2	<=50%	<=72%	<=63%	5.00	inactive
